Data from US5614192A, “T cell receptor peptides as therapeutics for immune-related disease” (Connective Therapeutics, Inc., priority 1993, dated 1997).
Ends that are not written are not given here.

Columns and labels:
[1] = test system: passive EAE; assay: Transfer of EAE to naive rats by GPBP-selected T cell lines from treated rats; type: in vivo
[2] = test system: lymph node cells and Vβ8-44-54 selected T cell line

DMGHGLRLIHYSYDVNSTEKG [TCR Vβ8(39-59), 21-amino acid CDR2 peptide of rat TCR Vβ8]
Passive EAE Severity ([1]; 10^7 BP/1st line cells from treated rats): 0 | Passive EAE N ([1]; 10^7 GPBP activated BP/1st line cells from treated rats i.p. into naive rats): 0/3 | Ability to Transfer EAE ([1]; GPBP-selected T cells of rats given TCR peptide ID day 13): YES | Response of Lymph Node Cells [2]: 38 ± 3 | Response of T Cell Line [2]: 102 ± 10
